Where “and” joins values, the source holds several entries; their conditions need not be identical. Equal entries are not always repeated.
Tested on: broad-leaf and grass weed species
Assay: Field testing of pre-emergence application of dicamba and acetochlor in Argentina and/or South Africa (Example 10);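 note: percent weed control in field trials, rated at 14 days (early) and 28 days (late) after treatment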
Details: for percent control X (ACETOCHLOR ALONE): early rating (14 day); for X (acetochlor alone): late rating (28 day)

CCOCN(C(=O)CCl)c1c(C)cccc1CC [Acetochlor, 2-chloro-N-(ethoxymethyl)-6′-ethyl-o-acetotoluidide]
percent control X (ACETOCHLOR ALONE) (AMADE, 630 g/ha): 96.7% | X (acetochlor alone) (AMADE, 630 g/ha): 57.1% | percent control X (ACETOCHLOR ALONE) (AMADE, 1260 g/ha): 99.4% | X (acetochlor alone) (AMADE, 1260 g/ha): 69.4% | percent control X (ACETOCHLOR ALONE) (AMAQU, 630 g/ha): 64.3% | X (acetochlor alone) (AMAQU, 630 g/ha): 48.8% | percent control X (ACETOCHLOR ALONE) (AMAQU, 1260 g/ha): 81.4% | X (acetochlor alone) (AMAQU, 1260 g/ha): 70.0% | percent control X (ACETOCHLOR ALONE) (ANOCR, 630 g/ha): 47.0% | X (acetochlor alone) (ANOCR, 630 g/ha): 31.6% | percent control X (ACETOCHLOR ALONE) (ANOCR, 1260 g/ha): 59.5% | X (acetochlor alone) (ANOCR, 1260 g/ha): 45.2% | percent control X (ACETOCHLOR ALONE) (BIDPI, 630 g/ha): 17.5% | X (acetochlor alone) (BIDPI, 630 g/ha): 0.0% | percent control X (ACETOCHLOR ALONE) (BIDPI, 1260 g/ha): 47.5% | X (acetochlor alone) (BIDPI, 1260 g/ha): 27.5% | X (acetochlor alone) (BRAER, 630 g/ha): 47.5% | X (acetochlor alone) (BRAER, 1260 g/ha): 65.0% | percent control X (ACETOCHLOR ALONE) (CHEAL, 630 g/ha): 46.7% | X (acetochlor alone) (CHEAL, 630 g/ha): 80.3% | percent control X (ACETOCHLOR ALONE) (CHEAL, 1260 g/ha): 50.0% | X (acetochlor alone) (CHEAL, 1260 g/ha): 77.0% | percent control X (ACETOCHLOR ALONE) (CHRGA, 630 g/ha): 0.0% | X (acetochlor alone) (CHRGA, 630 g/ha): 0.0% | percent control X (ACETOCHLOR ALONE) (CHRGA, 1260 g/ha): 86.0% | X (acetochlor alone) (CHRGA, 1260 g/ha): 10.0% | percent control X (ACETOCHLOR ALONE) (COMBE, 630 g/ha): 0.0% | X (acetochlor alone) (COMBE, 630 g/ha): 0.0% | percent control X (ACETOCHLOR ALONE) (COMBE, 1260 g/ha): 12.5% | X (acetochlor alone) (COMBE, 1260 g/ha): 0.0% | percent control X (ACETOCHLOR ALONE) (CONFA, 630 g/ha): 10.0% | X (acetochlor alone) (CONFA, 630 g/ha): 0.0% | percent control X (ACETOCHLOR ALONE) (CONFA, 1260 g/ha): 77.5% | X (acetochlor alone) (CONFA, 1260 g/ha): 12.5% | percent control X (ACETOCHLOR ALONE) (CYNDA, 630 g/ha): 30.0% | percent control X (ACETOCHLOR ALONE) (CYNDA, 1260 g/ha): 49.2% | percent control X (ACETOCHLOR ALONE) (CYPES, 630 g/ha): 0.0% | X (acetochlor alone) (CYPES, 630 g/ha): 26.3% | percent control X (ACETOCHLOR ALONE) (CYPES, 1260 g/ha): 0.0% | X (acetochlor alone) (CYPES, 1260 g/ha): 33.3% | percent control X (ACETOCHLOR ALONE) (CYPRO, 630 g/ha): 44.1% | X (acetochlor alone) (CYPRO, 630 g/ha): 17.1% | percent control X (ACETOCHLOR ALONE) (CYPRO, 1260 g/ha): 51.0% | X (acetochlor alone) (CYPRO, 1260 g/ha): 25.8% | percent control X (ACETOCHLOR ALONE) (DATFE, 630 g/ha): 62.2% | X (acetochlor alone) (DATFE, 630 g/ha): 44.5% | percent control X (ACETOCHLOR ALONE) (DATFE, 1260 g/ha): 72.3% | X (acetochlor alone) (DATFE, 1260 g/ha): 58.5% | percent control X (ACETOCHLOR ALONE) (DIGER, 630 g/ha): 0.0% | X (acetochlor alone) (DIGER, 630 g/ha): 0.0% | percent control X (ACETOCHLOR ALONE) (DIGER, 1260 g/ha): 86.0% | X (acetochlor alone) (DIGER, 1260 g/ha): 12.5% and 12.4% | percent control X (ACETOCHLOR ALONE) (DIGSA, 630 g/ha): 63.1% | X (acetochlor alone) (DIGSA, 630 g/ha): 51.3% | percent control X (ACETOCHLOR ALONE) (DIGSA, 1260 g/ha): 72.1% | X (acetochlor alone) (DIGSA, 1260 g/ha): 59.2% | X (acetochlor alone) (DTTAE, 630 g/ha): 0.0% | X (acetochlor alone) (DTTAE, 1260 g/ha): 10.0% | percent control X (ACETOCHLOR ALONE) (ELEAF, 630 g/ha): 88.3% | X (acetochlor alone) (ELEAF, 630 g/ha): 20.3% | percent control X (ACETOCHLOR ALONE) (ELEAF, 1260 g/ha): 85.9% | X (acetochlor alone) (ELEAF, 1260 g/ha): 28.3% | percent control X (ACETOCHLOR ALONE) (HIBCA, 630 g/ha): 55.0% | X (acetochlor alone) (HIBCA, 630 g/ha): 37.5% | percent control X (ACETOCHLOR ALONE) (HIBCA, 1260 g/ha): 89.5% | X (acetochlor alone) (HIBCA, 1260 g/ha): 96.5% | X (acetochlor alone) (IPOBA, 630 g/ha): 0.0% | X (acetochlor alone) (IPOBA, 1260 g/ha): 0.0% | percent control X (ACETOCHLOR ALONE) (IPOPD, 630 g/ha): 27.5% | X (acetochlor alone) (IPOPD, 630 g/ha): 21.2% | percent control X (ACETOCHLOR ALONE) (IPOPD, 1260 g/ha): 71.3% | X (acetochlor alone) (IPOPD, 1260 g/ha): 63.0% | percent control X (ACETOCHLOR ALONE) (OVERALL, 630 g/ha): 49.8% | percent control X (ACETOCHLOR ALONE) (OVERALL, 1260 g/ha): 64.2% | X (acetochlor alone) (Overall, 630 g/ha): 37.8% | X (acetochlor alone) (Overall, 1260 g/ha): 50.8% | percent control X (ACETOCHLOR ALONE) (PERCENT WEED FREE, 1260 g/ha): 75.5% | percent control X (ACETOCHLOR ALONE) (POROL, 630 g/ha): 38.6% | X (acetochlor alone) (POROL, 630 g/ha): 26.7% | percent control X (ACETOCHLOR ALONE) (POROL, 1260 g/ha): 47.5% | X (acetochlor alone) (POROL, 1260 g/ha): 37.8% | X (acetochlor alone) (Percent Weed Free, 630 g/ha): 53.2% | X (acetochlor alone) (Percent Weed Free, 1260 g/ha): 63.8% | percent control X (ACETOCHLOR ALONE) (RCHBR, 630 g/ha): 57.0% | X (acetochlor alone) (RCHBR, 630 g/ha): 22.5% | percent control X (ACETOCHLOR ALONE) (RCHBR, 1260 g/ha): 87.7% | X (acetochlor alone) (RCHBR, 1260 g/ha): 67.4% | percent control X (ACETOCHLOR ALONE) (TAGMI, 630 g/ha): 89.9% | X (acetochlor alone) (TAGMI, 630 g/ha): 45.8% | percent control X (ACETOCHLOR ALONE) (TAGMI, 1260 g/ha): 95.3% | X (acetochlor alone) (TAGMI, 1260 g/ha): 65.0% | percent control X (ACETOCHLOR ALONE) (XANST, 630 g/ha): 59.7% | X (acetochlor alone) (XANST, 630 g/ha): 33.7% | percent control X (ACETOCHLOR ALONE) (XANST, 1260 g/ha): 72.6% | X (acetochlor alone) (XANST, 1260 g/ha): 37.7%
